Reference: patent US20100173780A1, “POLYPHENOL-CONTENT-[…] FOR PLANT” (COSMO OIL CO., LTD., priority 2006, published 2010)

Key:
[1] = test system: parsley; experiment: Amount of polyphenol in parsley after ALA treatment (HPLC); assay type: in vivo, parsley (Umbelliferae, genus parsley, race Paramount); conditions: 1 ppm
Method: (§1) Two containers (length: 0.75 m, width 0.5 m) were provided and soil was placed in each of them. A Chemical fertilizer (nitrogen content:phosphorus content:potassium content=15:15:15 as mass ratio) was used as a base fertilizer and young plants of green pepper (Solanaceae, genus cayenne, race Miogi) were grown for two months according to a conventional method. Water was applied to the young plants once a day by means of a sprinkling can. Prior to one month from harvest, treatment was conducted once a week with 50 mL per container of each aqueous solution containing 0 ppm (control) or 1 ppm of 5-aminolevulinic acid hydrochloride to which a spreading agent, Approach BI (manufactured by Kao Corporation) had been added in a ratio of 0.1% by mass. After harvest, 3 g of green pepper was finely cut with scissors and a kitchen knife and then homogenized after addition of water. The homogenized one was diluted up to 6 mL with distilled water (stock solution) and the stock solution was divided into three even portions and used in the following extraction methods (1) to (3). (1) Three mL of ethyl acetate was added to 2 mL of the stock solution and the resultant one was centrifuged at 3000 rpm for 10 minutes. The supernatant was transferred to a spit tube and was evaporated to dryness with nitrogen gas while the tube was immersed in a warm bath at about 60° C. Thereto were added 200 μL of methanol and 100 μL of distilled water, thereby the volume being made 300 μL. (2) Two mL of methanol was added to 2 mL of the stock solution and the resultant one was centrifuged at 3000 rpm for 10 minutes. The supernatant was transferred to a spit tube and was evaporated to dryness with nitrogen gas while the tube was immersed in a warm bath at about 60° C. Thereto were added 200 μL of methanol and 100 μL of distilled water, thereby the volume being made 300 μL. (3) One mL of 0.1N hydrochloric acid was added to 2 mL of the stock solution and the resultant one was transferred to a plastic tube and kept in a drive-lock bath at 96.5° C. for 1 hour to effect hydrolysis. Five mL of ethyl acetate was added thereto and the resultant one was centrifuged at 3000 rpm for 10 minutes. The supernatant was transferred to a spit tube and was evaporated to dryness with nitrogen gas while the tube was immersed in a warm bath at about 60° C. Thereto were added 200 μL of methanol and 100 μL of distilled water, thereby the volume being made 300 μL. The samples from (1) to (3) were measured by high-performance liquid chromatography (HPLC) (analytical conditions: the measurement was performed at a flow rate of 1.0 mL/min at a column temperature of 40° C. using a wavelength of 350 nm, using Liquid A (80% by volume of methanol/5% by volume of acetic acid) or Liquid B (10% by volume of methanol/5% by volume of acetic acid) as an eluent, and using a column of Hichrom5C18, T898, 4.6 mm×[…] (manufactured by LLOYD′S REGISTER QUALITY COMPANY) and each concentration was calculated based on standard solutions. In Table 1, the most highly extracted value was cited among the results measured with each of the extraction methods (1) to (3). Moreover, the sum of individual concentration of polyphenol used in this time was regarded as the total amount of polyphenol.
(§2) Two containers (length: 0.75 m, width 0.5 m) were provided and soil was placed in each of them. A Chemical fertilizer (nitrogen content:phosphorus content:potassium content=15:15:15 as mass ratio) was used as a base fertilizer and seeds of parsley (Umbelliferae, genus parsley, race Paramount) were planted according to a conventional method and water was applied once a day by means of a sprinkling can. Prior to one month from harvest, treatment was conducted once a week with 50 mL per container of each aqueous solution containing 0 ppm (control) or 1 ppm of 5-aminolevulinic acid hydrochloride. After harvest, the content of polyphenol was analyzed in the same manner as in Example 1.

[2] = test system: pepper; experiment: Amount of polyphenol in pepper after ALA treatment (HPLC); assay type: in vivo, pepper (Solanaceae, genus cayenne; conditions: pepper (race Habanero), 1 ppm
Method: as §1
as §2, with “young plants” for “seeds”, “pepper (Solanaceae,” for “parsley (Umbelliferae,”, “cayenne,” for “parsley,”, “Habanero)” for “Paramount)”

[3] = test system: green pepper; experiment: Amount of polyphenol in green pepper after ALA treatment (HPLC); assay type: in vivo, green pepper (Solanaceae, genus cayenne, race Miogi)
Method: as §1

[4] = 50 mL per container once a week from one month before harvest, HPLC
[5] = 50 mL per container once a week from one month before harvest, sum of the individual polyphenols
[6] = 50 mL per container once a week, versus 0 ppm control
[7] = 1 ppm, 50 mL per container once a week from one month before harvest, HPLC, highest of extraction methods (1)-(3)

Cl.NCC(=O)CCC(=O)O [ALA, 5-aminolevulinic acid hydrochloride]
Apigenin amount in parsley [1, 4]: 1099 ng/g | Caffeic acid amount in parsley [1, 4]: 4240 ng/g | Chlorogenic acid amount in parsley [1, 4]: 20820 ng/g | Ferulic acid amount in parsley [1, 4]: 0 ng/g | Hesperetin amount in parsley [1, 4]: 110685 ng/g | Isorhamnetin amount in parsley [1, 4]: 4388 ng/g | Kaempferol amount in parsley [1, 4]: 10321 ng/g | Luteolin amount in parsley [1, 4]: 2733 ng/g | Quercetin amount in parsley [1, 4]: 37699 ng/g | Rutin amount in parsley [1, 4]: 28977 ng/g | Total amount of polyphenol in parsley [1, 5]: 220962 ng/g | ALA/control ratio of total amount of polyphenol in parsley [1, 6]: 3.5 | Apigenin amount in pepper [2, 4]: 2570 ng/g | Caffeic acid amount in pepper [2, 4]: 5520 ng/g | Chlorogenic acid amount in pepper [2, 4]: 18020 ng/g | Ferulic acid amount in pepper [2, 4]: 9270 ng/g | Hesperetin amount in pepper [2, 4]: 0 ng/g | Isorhamnetin amount in pepper [2, 4]: 270 ng/g | Kaempferol amount in pepper [2, 4]: 0 ng/g | Luteolin amount in pepper [2, 4]: 62060 ng/g | Quercetin amount in pepper [2, 4]: 26700 ng/g | Rutin amount in pepper [2, 4]: 457080 ng/g | Total amount of polyphenol in pepper [2, 5]: 581490 ng/g | ALA/control ratio of total amount of polyphenol in pepper [2, 6]: 1.4 | Total amount of polyphenol in green pepper ([3]; 1 ppm once a week from one month before harvest, sum of the individual polyphenol concentrations): 48824 ng/g | ALA/control ratio of total amount of polyphenol in green pepper ([3]; 1 ppm once a week from one month before harvest, versus 0 ppm control): 9.4 | Apigenin amount in green pepper [3, 7]: 0 ng/g | Caffeic acid amount in green pepper [3, 7]: 276 ng/g | Chlorogenic acid amount in green pepper [3, 7]: 4856 ng/g | Ferulic acid amount in green pepper [3, 7]: 5680 ng/g | Hesperetin amount in green pepper [3, 7]: 236 ng/g | Isorhamnetin amount in green pepper [3, 7]: 1849 ng/g | Kaempferol amount in green pepper [3, 7]: 668 ng/g | Luteolin amount in green pepper [3, 7]: 644 ng/g | Quercetin amount in green pepper [3, 7]: 28919 ng/g | Rutin amount in green pepper [3, 7]: 5696 ng/g
